Test results from PubChem BioAssay AID256 (DTP/NCI, 2004).
“And” between values parts separate entries of the source, which are not always exact repeats. Identical values can stand only once. Inconclusive results and toxic doses are left out.

Test system: CD2F1 mice, L1210 leukemia ip, survival T/C
Assay: NCI In Vivo Anticancer Drug Screen. Data for tumor model L1210 Leukemia (intraperitoneal) in CD2F1 (CDF1) mice
Details: higher = longer survival
In short: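 Compound-dosed mice with transplantable tumor versus matched vehicle controls; endpoint ratio T/C reported.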

[1] = endpoint: mean survival time, dose: 100.0 mg/kg/injection, schedule: Q04DX003 (ip), vehicle: saline with Tween-80
[2] = endpoint: mean survival time, dose: 100.0 mg/kg/injection, schedule: Q01DX009 (ip), vehicle: saline with Tween-80
[3] = endpoint: mean survival time, dose: 200.0 mg/kg/injection, schedule: Q01DX009 (ip), vehicle: saline with Tween-80

## N#Cc1c(-c2ccc(F)cc2)c(-c2ccc(F)cc2)nn(CCO)c1=O
endpoint: median survival time, dose: 12.5 mg/kg/injection, schedule: Q01DX005 (ip), vehicle: distilled water + Tween-80
  T/C: 98 % of control and 100 % of control
endpoint: median survival time, dose: 25.0 mg/kg/injection, schedule: Q01DX005 (ip), vehicle: distilled water + Tween-80
  T/C: 98 % of control and 100 % of control
endpoint: median survival time, dose: 50.0 mg/kg/injection, schedule: Q01DX005 (ip), vehicle: distilled water + Tween-80
  T/C: 102 % of control and 104 % of control
endpoint: median survival time, dose: 72.0 mg/kg/injection, schedule: Q01DX005 (ip), vehicle: water
  T/C: 106 % of control and 111 % of control
endpoint: median survival time, dose: 100.0 mg/kg/injection, schedule: Q01DX005 (ip), vehicle: distilled water + Tween-80
  T/C: 107 % of control
endpoint: median survival time, dose: 108.0 mg/kg/injection, schedule: Q01DX005 (ip), vehicle: distilled water + Tween-80
  T/C: 118 % of control
endpoint: median survival time, dose: 120.0 mg/kg/injection, schedule: Q01DX005 (ip), vehicle: water
  T/C: 121 % of control and 123 % of control
endpoint: median survival time, dose: 180.0 mg/kg/injection, schedule: Q01DX005 (ip), vehicle: distilled water + Tween-80
  T/C: 124 % of control
endpoint: median survival time, dose: 200.0 mg/kg/injection, schedule: Q01DX005 (ip), vehicle: distilled water + Tween-80
  T/C: 110 % of control
endpoint: median survival time, dose: 333.3 mg/kg/injection, schedule: Q01DX005 (ip), vehicle: water
  T/C: 325 % of control
endpoint: median survival time, dose: 333.33 mg/kg/injection, schedule: Q01DX005 (ip), vehicle: water
  T/C: 196 % of control
endpoint: median survival time, dose: 500.0 mg/kg/injection, schedule: Q01DX005 (ip), vehicle: distilled water + Tween-80
  T/C: 204 % of control
endpoint: median survival time, dose: 555.55 mg/kg/injection, schedule: Q01DX005 (ip), vehicle: water
  T/C: 264 % of control

## COC(=O)C1C(O)C(C)C(O)C(C)(O)C=C(C)C2=C3C(=C(C)C(=O)c4c(O)c(c(C)c(OC(C)=O)c43)NC(=O)C(C)=C/C=C\C(C)(O)C(O)C(C)C1O)OCO2 (stereo not drawn)
endpoint: mean survival time, dose: 12.5 mg/kg/injection, schedule: Q04DX003 (ip), vehicle: saline with Tween-80
  T/C: 96 % of control
endpoint: mean survival time, dose: 25.0 mg/kg/injection, schedule: Q04DX003 (ip), vehicle: saline with Tween-80
  T/C: 101 % of control
endpoint: mean survival time, dose: 50.0 mg/kg/injection, schedule: Q04DX003 (ip), vehicle: saline with Tween-80
  T/C: 101 % of control
[1]
  T/C: 111 % of control

## CC(C)C(O)C(C)N (stereo not drawn)
endpoint: mean survival time, dose: 25.0 mg/kg/injection, schedule: Q01DX009 (ip), vehicle: saline with Tween-80
  T/C: 113 % of control
endpoint: mean survival time, dose: 50.0 mg/kg/injection, schedule: Q01DX009 (ip), vehicle: saline with Tween-80
  T/C: 95 % of control
[2]
  T/C: 93 % of control

## COCC1OC(COC)C(OC)C1OC (stereo not drawn)
endpoint: mean survival time, dose: 100.0 mg/kg/injection, schedule: Q04DX003 (ip), vehicle: acetone
  T/C: 102 % of control
endpoint: mean survival time, dose: 200.0 mg/kg/injection, schedule: Q04DX003 (ip), vehicle: acetone
  T/C: 102 % of control
endpoint: mean survival time, dose: 400.0 mg/kg/injection, schedule: Q04DX003 (ip), vehicle: acetone
  T/C: 94 % of control

## CCCCCCCCCCCCCC[N+](C)(C)Cc1cc(=O)c(O)co1
endpoint: mean survival time, dose: 25.0 mg/kg/injection, schedule: Q04DX003 (ip), vehicle: Klucel (hydroxypropylcellulose) (HPC)
  T/C: 97 % of control
endpoint: mean survival time, dose: 50.0 mg/kg/injection, schedule: Q04DX003 (ip), vehicle: Klucel (hydroxypropylcellulose) (HPC)
  T/C: 109 % of control
endpoint: mean survival time, dose: 100.0 mg/kg/injection, schedule: Q04DX003 (ip), vehicle: Klucel (hydroxypropylcellulose) (HPC)
  T/C: 109 % of control
[1]
  T/C: 87 % of control

## O=C(O)CNCC(=O)O
[2]
  T/C: 93 % of control
[3]
  T/C: 97 % of control
endpoint: mean survival time, dose: 400.0 mg/kg/injection, schedule: Q01DX009 (ip), vehicle: saline with Tween-80
  T/C: 98 % of control

## O=C(N/N=C/c1ccc(O)cc1)c1ccncc1
endpoint: mean survival time, dose: 50.0 mg/kg/injection, schedule: Q04DX002 (ip), vehicle: saline with Tween-80
  T/C: 95 % of control
endpoint: mean survival time, dose: 100.0 mg/kg/injection, schedule: Q04DX002 (ip), vehicle: saline with Tween-80
  T/C: 91 % of control
endpoint: mean survival time, dose: 200.0 mg/kg/injection, schedule: Q04DX002 (ip), vehicle: saline with Tween-80
  T/C: 100 % of control
endpoint: mean survival time, dose: 400.0 mg/kg/injection, schedule: Q04DX002 (ip), vehicle: saline with Tween-80
  T/C: 88 % of control

## CC(=O)Nc1ccccc1C(C)=O
[2]
  T/C: 110 % of control
[3]
  T/C: 109 % of control

## COc1cc2c3cc1Oc1c(OC)c(OC)cc4c1C(Cc1ccc(O)c(c1)Oc1ccc(cc1)CC3N(C)CC2)CN(C)C4 (stereo not drawn)
[1]
  T/C: 101 % of control
endpoint: mean survival time, dose: 200.0 mg/kg/injection, schedule: Q04DX003 (ip), vehicle: saline with Tween-80
  T/C: 93 % of control

## Cn1c(=O)[nH]cc(C2OC(CO)C(O)C2O)c1=O (stereo not drawn)
endpoint: median survival time, dose: 12.5 mg/kg/injection, schedule: Q01DX005 (ip), vehicle: saline
  T/C: 103 % of control
endpoint: median survival time, dose: 25.0 mg/kg/injection, schedule: Q01DX005 (ip), vehicle: saline
  T/C: 100 % of control
endpoint: median survival time, dose: 50.0 mg/kg/injection, schedule: Q01DX005 (ip), vehicle: saline
  T/C: 92 % of control
endpoint: median survival time, dose: 100.0 mg/kg/injection, schedule: Q01DX005 (ip), vehicle: saline
  T/C: 100 % of control
endpoint: median survival time, dose: 200.0 mg/kg/injection, schedule: Q01DX005 (ip), vehicle: saline
  T/C: 107 % of control
